Test results taken from patent publication US7312330B2, “Bicycloheteroarylamine compounds as ion channel ligands and uses thereof” (Renovis, Inc., priority 2003, dated 2007).

Tests used:
[1] = molecular target: hVR1 (Homo sapiens, UniProt Q8NER1); experiment: Calcium imaging assay (Fura2) of VR1 antagonists, proton stimulation; type: cell-based; conditions: HEK 293 cells expressing hVR1; for % Inhibition @ 1 μM: calcium ion influx induced by proton stimulation (pH 5.7); for IC50: calcium ion influx induced by proton stimulation
Excerpt: VR1 protein is a heat-gated cation channel that exchanges about 10 calcium ions for every sodium ion resulting in neuronal membrane depolarization and elevated intracellular calcium ion levels. Therefore the functional activity of compounds at the VR1 receptor may be determined by measuring changes in intracellular calcium levels in 293 cells expressing capsaicin-insensitive VR1 receptor variants. A dual wavelength ratiometric dye, Fura2, was used as an indicator of relative levels of calcium ions in a 96 well format using a bench top scanning fluorometer with integrated fluidics and temperature control (Flex Station, Molecular Devices).
A dual wavelength ratiometric dye, Fura2, was used as an indicator of relative levels of [Ca2+] in a 96 well format using a bench top scanning fluorometer with integrated fluidics and temperature control (Flex Station, Molecular Devices).
HEK 293 cells expressing hVR1 were grown on PDL coated 96-well black-walled plates, in the presence of a DMEM medium containing 5% Penstrep, 5% Glutamax, 200 ug/mL Hygromycin, 5 μg/mL Blasticide and 10% heat inactivated FBS. Prior to assay, the cells were loaded with 5 μg/mL Fura2 in normal saline solution at 37° C. for 40 minutes. Cells were then washed with normal saline to remove the dye.
The assay consists of two stages; a pre-treatment phase followed by a treatment phase. In the pretreatment phase, 50 μl of a compound solution was added to the cells. Immediately following, 50 μl of the test compound in the presence of agonist (a saline solution plus 10 mM citric acid bufferd to pH 5.7 with HCl) was added. Fura2 was excited at […] to indicate relative calcium concentration. Changes in wavelength measurements were made throughout the course of the experiment in 4 second intervals over a period of 3 minutes. The fluorescence ratio from the excitations at […] was recorded for analysis. Responses were measured as peak fluorescence ratio after compound-agonist addition minus baseline fluorescence ratio prior to treatment and were calculated for each concentration tested using the SoftMaxPro software. Data was expressed as percentage inhibition calculated as follows: […]
A dose response curve was then determined, from which the ID50 of each compound was calculated.

[2] = molecular target: T1, HsVR1 (Homo sapiens, UniProt Q8NER1); experiment: Two-electrode voltage clamp recording of capsaicin induced VR1 current in Xenopus oocytes; type: cell-based; conditions: 250 nM capsaicin induced current; Xenopus oocytes injected with HsVR1 RNA; read-out: EPHYS IC50
T1 construct: expressed in transfected cells; host or cells: Xenopus oocytes injected with HsVR1 RNA
Method: Xenopus ovaries obtained from NASCO were isolated by enzymatic dissociation using collagenase (Worthington, 2 mg/ml). Oocytes were then individually injected with HsVR1 RNA (0.5 μg/μl). Injected oocytes are stored in standard oocyte incubation solution, ND96, containing 96 mM NaCl, 2 mM KCl, 1 mM MgCl2, 0.3 mM CaCl2 and 50 µg/ml Gentamicin at 16° C. Capsaicin induced VR1 current is observed in oocytes 4-5 days after injection. Eight oocytes are placed in the recording chambers. Each oocyte is impaled by 2 glass electrodes having resistances of 0.5 to 1 MOhm when filled with a 3 M KCl solution. Electrode advancement and oocyte impalement are under software control (OpusXpress 1.1, Axon Instruments). VR1 expression in the oocytes is verified using 250 nM capsaicin. Test solution delivery to the oocytes during the experiment is also under software control. The solutions are prepared in 96 well plates and robotically pipetted into the oocyte recording chambers by an 8 channel pipetter. Oocytes are exposed to several 250 μl applications of 250 nM capsaicin until a stable current amplitude is obtained with each application. A set of 96 well plates containing the test solutions is prepared so that the sequence of solution application to the oocyte is as follows: 250 μls of 250 nM capsaicin is followed by a several minute wash with standard oocyte saline. 1 ml of the test compound is then added at a particular test concentration, followed immediately by 250 μl of the compound at the same concentration plus 250 nM capsaicin. The capsaicin induced VR1 current is recorded in the presence and absence of test compound for each concentration. The standard test concentrations range from 0.3 to 2000 nM. Quantitative measurement of VR1 current block was carried out by calculating the area under the curve described by the inward current. The resulting numbers for capsaicin induced currents in the presence of increasing compound concentration are normalized to the maximum current obtained. These points are then plotted on a logarithmic scale and fitted by a Hill function. The IC50 values for each compound tested were then calculated from the resulting Hill fit. All compounds that inhibited capsaicin induced current greater than 50% were considered positives.

T1 sequence (Q8NER1 whole entry): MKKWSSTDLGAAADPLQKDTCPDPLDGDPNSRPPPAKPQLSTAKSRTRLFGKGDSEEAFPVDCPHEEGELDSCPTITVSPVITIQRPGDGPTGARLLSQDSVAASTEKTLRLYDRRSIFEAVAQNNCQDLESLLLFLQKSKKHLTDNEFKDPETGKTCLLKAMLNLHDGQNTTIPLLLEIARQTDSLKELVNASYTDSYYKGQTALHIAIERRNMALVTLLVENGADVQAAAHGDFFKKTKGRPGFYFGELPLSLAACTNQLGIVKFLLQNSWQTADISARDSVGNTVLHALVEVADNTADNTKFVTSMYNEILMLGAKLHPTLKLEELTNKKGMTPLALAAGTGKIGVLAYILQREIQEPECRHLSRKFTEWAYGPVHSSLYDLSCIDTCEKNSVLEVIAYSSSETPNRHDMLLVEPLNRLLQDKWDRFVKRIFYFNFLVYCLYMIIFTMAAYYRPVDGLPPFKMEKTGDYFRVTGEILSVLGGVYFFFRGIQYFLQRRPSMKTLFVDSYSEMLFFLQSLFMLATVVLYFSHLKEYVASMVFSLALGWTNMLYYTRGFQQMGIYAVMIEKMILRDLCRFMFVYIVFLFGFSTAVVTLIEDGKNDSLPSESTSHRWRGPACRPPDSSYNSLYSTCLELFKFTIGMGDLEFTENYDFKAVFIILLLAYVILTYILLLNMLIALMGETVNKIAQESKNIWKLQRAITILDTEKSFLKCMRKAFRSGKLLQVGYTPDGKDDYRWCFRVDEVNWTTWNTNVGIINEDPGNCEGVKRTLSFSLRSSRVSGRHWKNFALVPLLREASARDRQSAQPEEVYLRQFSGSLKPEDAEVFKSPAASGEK
Chain of hVR1 (Q8NER1 whole entry): as above

Row | IC50 [1] [µM] | IC50 [2] [µM] | Compound | % Inhibition @ 1 μM [1]
1 | 0.101 to 0.5 | 0.101 to 0.5 | CC(C)(C)c1ccc(Nc2ncnc3c2CCN(c2ncccc2S(C)(=O)=O)C3)cc1 [Example 8, (4-tert-Butyl-phenyl)-[7-(3-methanesulfonyl-pyridin-2-yl)-5,6,7,8-tetrahydro-pyrido[3,4-d]pyrimidin-4-yl]-amine] | ++++ (compound exhibited 76% or greater inhibition of calcium ion influx induced by proton stimulation)
2 | 0.101 to 0.5 | 0.101 to 0.5 | CCS(=O)(=O)c1cccnc1N1CCc2c(ncnc2Nc2ccc(C(F)(F)F)cc2)C1 [Example 10, 7-(3-(Ethylsulfonyl)pyridin-2-yl)-N-(4-(trifluoromethyl)phenyl)-5,6,7,8-tetrahydropyrido[3,4-d]pyrimidin-4-amine] | +++ (compound exhibited 51-75% inhibition of calcium ion influx induced by proton stimulation)
3 | 0.101 to 0.5 | < 0.1 | FC(F)(F)c1ccc(Nc2ncnc3c2CCN(c2ncccc2C(F)(F)F)C3)cc1 [Example 12, (4-Trifluoromethyl-phenyl)-[7-(3-trifluoromethyl-pyridin-2-yl)-5,6,7,8-tetrahydro-pyrido[3,4-d]pyrimidin-4-yl]-amine] | ++++ (compound exhibited 76% or greater inhibition of calcium ion influx induced by proton stimulation)
4 | 0.101 to 0.5 | 0.101 to 0.5 | FC(F)(F)c1ccc(Nc2ncnc3c2CCN(c2ncccc2Cl)C3)cn1 [Example 20] | ++++ (compound exhibited 76% or greater inhibition of calcium ion influx induced by proton stimulation)
5 | < 0.1 | < 0.1 | O=S(=O)(c1ccc(Nc2ncnc3c2CCN(c2ncccc2Cl)C3)cc1)C(F)(F)F [Example 22, 7-(3-Chloropyridin-2-yl)-N-(4-(trifluoromethylsulphonyl)phenyl)-5,6,7,8-tetrahydropyrido[3,4-d]pyrimidin-4-amine] | ++++ (compound exhibited 76% or greater inhibition of calcium ion influx induced by proton stimulation)
6 | < 0.1 |  | CN1CC(C)(C)c2ccc(Nc3ncnc4c3CCN(c3ncccc3Cl)C4)cc21 [Example 70, 7-(3-Chloropyridin-2-yl)-5,6,7,8-tetrahydro-N-(1,3,3-trimethylindolin-6-yl)pyrido[3,4-d]pyrimidin-4-amine] | ++++ (compound exhibited 76% or greater inhibition of calcium ion influx induced by proton stimulation)
7 | > 1 |  | FC(F)(F)c1ccnc(N2CCc3c(ncnc3Nc3ccc4c(c3)OCCO4)C2)c1 [Example 71, 7-(4-(Trifluoromethyl)pyridin-2-yl)-5,6,7,8-tetrahydro-N-(2,3-dihydrobenzo[b][1,4]dioxin-7-yl)pyrido[3,4-d]pyrimidin-4-amine] | + (compound exhibited 0-25% inhibition of calcium ion influx induced by proton stimulation)
8 | > 1 |  | COc1cccc(Nc2ncnc3c2CCN(c2cc(C(F)(F)F)ccn2)C3)c1 [Example 72, 7-(4-(Trifluoromethyl)pyridin-2-yl)-5,6,7,8-tetrahydro-N-(3-methoxyphenyl)pyrido[3,4-d]pyrimidin-4-amine] | + (compound exhibited 0-25% inhibition of calcium ion influx induced by proton stimulation)
9 | > 1 |  | COc1cccc(Nc2ncnc3c2CCN(c2ccc(C(F)(F)F)cn2)C3)c1 [Example 73, 7-(5-(Trifluoromethyl)pyridin-2-yl)-5,6,7,8-tetrahydro-N-(3-methoxyphenyl)pyrido[3,4-d]pyrimidin-4-amine] | + (compound exhibited 0-25% inhibition of calcium ion influx induced by proton stimulation)
10 | > 1 |  | Clc1cccnc1N1CCc2c(ncnc2Nc2ccc3c(c2)OCCO3)C1 [Example 74, 7-(3-Chloropyridin-2-yl)-5,6,7,8-tetrahydro-N-(2,3-dihydrobenzo[b][1,4]dioxin-6-yl)pyrido[3,4-d]pyrimidin-4-amine] | ++ (compound exhibited 26-50% inhibition of calcium ion influx induced by proton stimulation)
11 | > 1 |  | O=C(O)COc1nc2c(c(Nc3ccc(C(F)(F)F)cc3)n1)CCN(c1ncccc1Cl)C2 [Example 75, 2-(4-(4-(Trifluoromethyl)phenylamino)-7-(3-chloropyridin-2-yl)-5,6,7,8-tetrahydropyrido[3,4-d]pyrimidin-2-yloxy)acetic acid] | + (compound exhibited 0-25% inhibition of calcium ion influx induced by proton stimulation)
12 | < 0.1 |  | O=S(=O)(c1ccc(Nc2ncnc3c2CCN(c2ncccc2C(F)(F)F)C3)cc1)C(F)(F)F [Example 76, 7-(3-(trifluoromethyl)pyridin-2-yl)-5,6,7,8-tetrahydro-N-(4-(trifluoromethylsulfonyl)-phenyl)pyrido[3,4-d]pyrimidin-4-amine] | ++++ (compound exhibited 76% or greater inhibition of calcium ion influx induced by proton stimulation)
13 | 0.101 to 0.5 |  | FC(F)Oc1ccc(Nc2ncnc3c2CCN(c2ncccc2C(F)(F)F)C3)cc1 [Example 77, N-(4-(difluoromethoxy)phenyl)-7-(3-(trifluoromethyl)pyridin-2-yl)-5,6,7,8-tetrahydropyrido[3,4-d]pyrimidin-4-amine] | ++++ (compound exhibited 76% or greater inhibition of calcium ion influx induced by proton stimulation)
14 | < 0.1 |  | FC(F)(F)Oc1ccc(Nc2ncnc3c2CCN(c2ncccc2Cl)C3)cc1 [Example 78, 7-(3-Chloropyridin-2-yl)-5,6,7,8-tetrahydro-N-(4-(trifluoromethoxy)-phenyl)pyrido[3,4-d]pyrimidin-4-amine] | ++++ (compound exhibited 76% or greater inhibition of calcium ion influx induced by proton stimulation)
15 | < 0.1 |  | FC(F)(F)Oc1ccc(Nc2ncnc3c2CCN(c2ncccc2C(F)(F)F)C3)cc1 [Example 79, 7-(3-(trifluoromethyl)pyridin-2-yl)-5,6,7,8-tetrahydro-N-(4-(trifluoromethoxy)-phenyl)pyrido[3,4-d]pyrimidin-4-amine] | ++++ (compound exhibited 76% or greater inhibition of calcium ion influx induced by proton stimulation)

Row | Compound | IC50 [1] [µM] | IC50 [2] [µM] | % Inhibition @ 1 μM [1]
16 | CC(C)(C)c1ccc(Nc2ncnc3c2CCN(c2ncccc2Cl)C3)cc1.Cl [Example 3, N-(4-tert-Butylphenyl)-7-(3-chloropyridin-2-yl)-5,6,7,8-tetrahydropyrido[3,4-d]pyrimidin-4-amine hydrochloride] | < 0.1 | < 0.1 | ++++ (compound exhibited 76% or greater inhibition of calcium ion influx induced by proton stimulation)
17 | COCc1nc2c(c(Nc3ccc(C(C)(C)C)cc3)n1)CCN(c1ncccc1Cl)C2.Cl [Example 5, N-(4-tert-Butylphenyl)-7-(3-chloropyridin-2-yl)-5,6,7,8-tetrahydro-2-(methoxymethyl)pyrido[3,4-d]pyrimidin-4-amine hydrochloride] | < 0.1 | < 0.1 | ++++ (compound exhibited 76% or greater inhibition of calcium ion influx induced by proton stimulation)
